# Biological target: Thermolysin (Bacillus thermoproteolyticus, UniProt P00800)
# Settings: liposomes exposing RJ111; linker Trp-Ile-Pro-Val-Ser-Leu-Arg-Ser-Gly
# Method: The size and ζ-potential (zeta potential) of RJ111 formulated liposomes were measured before and after enzymatic cleavage of the RJ111 peptide linker using Thermolysin as a model enzyme. RJ111 formulated liposomes were mixed with a buffered solution of Thermolysine yielding final concentrations of: 2.2 mM lipid (220 μM RJ111), 220 μg/ml Thermolysine, 1 uM, ZnCl2 0.5 mM CaCl2, 30 mM HEPES and 125 mM NaCl. The reaction mixtures containing Thermolysine and RJ111 formulated in liposomes were heated to 37° C. for a period of 12 hours and the size and ζ-potential were subsequently measured in an equi-osmolar solution of 300 mM Glucose, 10 mM HEPES (pH 7.4) and 1 mM CaCl2. The ζ-potential and size of the non-cleaved RJ111 formulations were measured (ZetaPALS, Brookhaven Instruments Corp., Holtsville, N.Y., USA) in an equi-osmolar solution of 300 mM Glucose, 10 mM HEPES (pH 7.4) and 1 mM CaCl2.
# Sequence of Thermolysin (P00800 233-548, species assumed): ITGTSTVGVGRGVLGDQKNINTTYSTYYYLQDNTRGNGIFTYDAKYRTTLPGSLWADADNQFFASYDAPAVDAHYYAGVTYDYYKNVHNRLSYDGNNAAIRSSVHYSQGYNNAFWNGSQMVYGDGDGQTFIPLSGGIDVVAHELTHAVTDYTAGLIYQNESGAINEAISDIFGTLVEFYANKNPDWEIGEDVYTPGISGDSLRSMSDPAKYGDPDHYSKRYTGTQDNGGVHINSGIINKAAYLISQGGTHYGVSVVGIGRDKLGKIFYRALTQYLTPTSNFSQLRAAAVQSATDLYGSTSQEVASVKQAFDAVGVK
substance,measurement,value
(C14)2-dap-Trp-Ile-Pro-Val-Ser-Leu-Arg-Ser-Gly-Glu-Glu-Glu-Glu-PEG2000-OH [RJ111],cleavage of peptide linker by Thermolysine,efficiently was cleaved

# Source: patent publication US9161993B2, “Charge triggering of self-organized nanoparticles” (Danmarks Tekniske Universitet, priority 2011, dated 2015)
